The record followed here is patent publication US20260115170A1, “Method of Ameliorating a Symptom or a Disease in a Human Caused by Fungus” (ISHIHARA SANGYO KAISHA, LTD., priority 2020, published 2026).

SMILES strings stand for the structures. In brackets after ≈: the same amount, converted by molar mass.

Test [1] relates to T. interdegitale (TIMM20065 Strain). The test can be described thus: Test Example 1-7 antimicrobial activity test, minimum inhibitory concentration. The class given is cell-based, Trichophyton interdegitale. To be noted: Trichophyton, Sabouraud medium, 28° C. for 72 hours. The protocol: (§1) Test Microbial Strains: Trichophyton rubrum (CBS118892 Strain), T. interdegitale (TIMM20065 Strain), Microsporum canis (TIMM20080 Strain), and Arthroderma vanbreuseghemii (TIMM2789)
(§2) Each microbial strain was cultured in a Sabouraud medium containing 500 μg/mL of cycloheximide and 50 μg/mL of chloramphenicol at 28° C. for 8 days, then spores were collected in physiological saline containing Tween80 (polyoxyethylene sorbitan monooleate: manufactured by Kanto Chemical Co., Inc.) (0.05% (v/v)), and this was filtered through a cell strainer (φ40 μm). The spores were recovered from the filtrate by centrifugation (3500 rpm, 5 minutes) and washed twice with physiological saline, and then a spore suspension was prepared (1×10^7 spores/mL). 10 μL of the spore suspension was inoculated into a Sabouraud medium to which compound No. 1 dissolved in DMSO was added to have a predetermined concentration. After culturing at 28° C. for 72 hours, the presence or absence of microbial growth was investigated, and the minimum inhibitory concentration was determined. As a result, the minimum inhibitory concentration of compound No. 1 for each of the four microbial strains was 10 ppm.

In test [2] the test system is Cryptococcus neoformans (TIMM1316 Strain). The test is described as follows: Test Example 1-3 antimicrobial activity test, colony formation. To be noted: at 20 ppm, Sabouraud medium, 37° C. for 48 hours. The class given is cell-based. The protocol:
(§3) Test Microbial Strain: Cryptococcus neoformans (TIMM1316 Strain) Test method: The Cryptococcus microbe cultured in an YPD liquid medium at 37° C. for 20 hours was recovered by centrifugation (3000 rpm, 5 minutes), washed twice with physiological saline, and then suspended in physiological saline, and a microbial liquid was prepared in such a way as to provide 2×10^3 cells/mL. 100 μL of the microbial liquid was applied to a Sabouraud medium to which the test compound dissolved in DMSO was added to have a predetermined concentration. After culturing at 37° C. for 48 hours, the presence or absence of colony formation was investigated.

The subject of test [3] is Microsporum canis (TIMM20080 Strain). The test can be described thus: Test Example 1-7 antimicrobial activity test, minimum inhibitory concentration. In kind it is cell-based. To be noted: Sabouraud medium, 28° C. for 72 hours. The protocol:
as §1, §2

The subject of test [4] is Arthroderma vanbreuseghemii (TIMM2789). Described as above. The class given is cell-based. The settings on record: Trichophyton mentagrophytes, Sabouraud medium, 28° C. for 72 hours. The protocol: as §1, §2
The subject of test [5] is Trichophyton rubrum (CBS118892 Strain). The description is as above. In kind it is cell-based. To be noted: Sabouraud medium, 28° C. for 72 hours. The protocol:
as §1, §2

Test [6] deals with Malassezia Nana (CBS95574). The test is described as follows: Test Example 1-4 antimicrobial activity test, colony formation inhibition rate after 5 minutes contact. In kind it is cell-based. To be noted: contact 5 minutes at 30° C., culturing 5 days. On the procedure: Test Microbial Strain: Malassezia Nana (CBS95574)
(§4) The Malassezia microbe cultured at 32° C. for 20 hours in a Sabouraud liquid medium containing Tween80 (polyoxyethylene sorbitan monooleate: manufactured by Kanto Chemical Co., Inc.) (0.05% (v/v)) was recovered by centrifugation (3000 rpm, 5 minutes), washed twice with physiological saline, and then suspended in 10 mL of physiological saline, the resulting suspension was allowed to stand for 15 minutes, and then the supernatant was recovered. […] 100 μL of the microbial liquid resulting from the resuspension was applied to a Sabouraud medium containing Tween80 (0.05% (v/v)) and subjected to culturing at 30° C. for 5 days, then the number of colonies formed there (number of colonies formed in the inventive plot) and the number of colonies in a solvent to which the test compound was not added (the number of colonies formed in the non-agent treated plot) were measured, and the colony formation inhibition rate (%) was determined according to the following expression.

Test [7] concerns Malassezia pachydermatis (TIMM10024). The test can be described thus: Test Example 1-5 antimicrobial activity test, colony formation inhibition rate after 5 minutes contact. In kind it is cell-based. To be noted: contact 5 minutes at 30° C., culturing 5 days. On the procedure: Test Microbial Strain: Malassezia pachydermatis (TIMM10024)
as §4, with “ml” for “mL”, “in” for “according to”, “same manner as in Test Example 1-4.” for “following expression.”

In test [8] the test system is Candida glabrata (TIMM6054 Strain). The test is described as follows: Test Example 1-2 antimicrobial activity test, colony formation. The class given is cell-based. The settings on record: at 200 ppm, YPD medium, 37° C. for 48 hours. The protocol: as §3, with “Candida glabrata (TIMM6054” for “Cryptococcus neoformans (TIMM1316”, “Candida” for “Cryptococcus”, “an YPD” for “a Sabouraud”

Test [9] deals with A. Niger (TIMM4968 Strain). The test can be described thus: Test Example 1-6 antimicrobial activity test, minimum inhibitory concentration. The class given is cell-based. To be noted: Aspergillus niger, Sabouraud medium, 28° C. for 48 hours. The protocol: (§5) Test Microbial Strains: Aspergillus fumigatus (TIMM0063 Strain), and A. Niger (TIMM4968 Strain) Test method: The Aspergillus microbe was cultured in a PDA medium at 27° C. for 3 days, then spores were collected in physiological saline containing Tween80 (polyoxyethylene sorbitan monooleate: manufactured by Kanto Chemical Co., Inc.) (0.05% (v/v)), and this was filtered through a cell strainer (+40 μm). The spores were recovered from the filtrate by centrifugation (3500 rpm, 5 minutes) and washed twice with physiological saline, and then a spore suspension was prepared (1×10^7 spores/mL). 10 μL of the spore suspension was inoculated into a Sabouraud medium to which compound No. 1 dissolved in DMSO was added to have a predetermined concentration. After culturing at 28° C. for 48 hours, the presence or absence of microbial growth was investigated, and the minimum inhibitory concentration was determined.

Test [10] relates to Aspergillus fumigatus (TIMM0063 Strain). Described as above. In kind it is cell-based. To be noted: Sabouraud medium, 28° C. for 48 hours. On the procedure: as §5
Test [11] has as its system Candida albicans (TIMM1768 Strain). The test is described as follows: Test Example 1-1 antimicrobial activity test, colony formation. In kind it is cell-based. To be noted: at 50 ppm, Sabouraud medium, 37° C. for 48 hours. The protocol: as §3, with “Candida albicans (TIMM1768” for “Cryptococcus neoformans (TIMM1316”, “Candida” for “Cryptococcus”

As usually defined, the MIC is the lowest concentration that inhibits growth of the organism. Lower therefore signals inhibition by little substance. A word on the inhibition: it is how much of the control response was suppressed. High values mean a response far below the control, low ones a response near the control. Turning to `Cc1ccc(-c2nc(C#N)[nH]c2Cl)cc1` [Compound No. 1, 5-Chloro-4-(4-methylphenyl)-1H-imidazole-2-carbonitrile], the MIC in test [1] stood at 10 µg/mL (≈ 45.9 µM); in test [3], 10 µg/mL (≈ 45.9 µM); in [4], 10 µg/mL (≈ 45.9 µM); in test [5], 10 µg/mL (≈ 45.9 µM); in [9], 100 µg/mL (≈ 459 µM); in test [10], 100 µg/mL (≈ 459 µM). The figures for the colony formation result in test [2], in test [8] and in [11] were “completely suppressed colony formation”, “completely suppressed colony formation” and “completely inhibited colony formation”, respectively. Moreover, the inhibition at 100 ppm in test [6] (at 100 ppm) was found to be 98.5%; in test [7] (at 100 ppm) it was 98.1%. The inhibition at 200 ppm in test [6] (at 200 ppm) was determined as 99.9%; in test [7] (at 200 ppm) it was 100%.
